# Source: ChEMBL document CHEMBL1139319, “Notoamides F-K, prenylated indole alkaloids isolated from a marine-derived Aspergillus sp” (J Nat Prod, 2008)
# Test system: HeLa
# Assay: Cytotoxicity against human HeLa cells after 3 days by MTT assay
# Type: functional, cell-based
# Settings: 72 h
row,SMILES,IC50 [µg/mL]
1,CO[C@H]1c2c([nH]c3c4c(ccc23)OC(C)(C)C=C4)C(C)(C)[C@@H]2C[C@]34CCCN3C(=O)[C@]12NC4=O [NOTOAMIDE F],> 50
2,CC1(C)C=Cc2c(ccc3c4c([nH]c23)C(C)(C)[C@@H]2C[C@]35CCCN3C(=O)[C@]2(NC5=O)C4=O)O1 [NOTOAMIDE I],21
3,C=CC(C)(C)[C@]1(C[C@@H]2NC(=O)[C@@H]3CCCN3C2=O)C(=O)Nc2cc(O)ccc21 [NOTOAMIDE J],> 50
4,C=CC(C)(C)[C@@]12Nc3c(ccc4c3C=CC(C)(C)O4)[C@]1(O)C[C@]1(O)C(=O)N3CCC[C@H]3C(=O)N21 [NOTOAMIDE K],> 50
